From publication PMC9081329, “Pharmacokinetics, Mass Balance, Excretion, and Tissue Distribution of Plasmalogen Precursor PPI-1011” (Frontiers in Cell and Developmental Biology, 2022)

Assay: Single dose tissue distribution study (QWBA, LSC of blood and plasma)
Type: in vivo, Sprague-Dawley rats
Protocol: Six male rats were administered a single oral dose of [^14C]PPI-1011 at 100 mg/kg (200 μCi/kg) and one rat was sacrificed at each of the following time points after the administration of the dose: 8, 12, 18, 24, 48, or 168 h. Terminal blood was collected by cardiac puncture directly into tubes with K2EDTA, an aliquot was stored at 4°C until LSC was performed for radioactivity, while the remaining blood was processed to plasma and stored at −20°C until LSC. Following blood collection, the carcasses were frozen in a cold bath with hexanes and dry ice for at least 8 min and then dried and stored at −70°C for at least 5 h. The carcasses were transferred to a −20°C freezer for at least 12 h before embedding.
QWBA was used to determine radioactivity concentrations in the caecum (contents and mucosa), large intestine (contents and mucosa), small intestine (contents and mucosa), stomach (contents and mucosa), brain, choroid plexus, spinal cord, bone, skin, adrenal gland, pineal body, pituitary gland, thyroid gland, liver, kidney (cortex, medulla and whole kidney), urinary bladder (contents and wall), brown fat, white fat, eye (lens, uveal tract and whole eye), epididymis, prostate gland, testis, ovary, uterus, lung, exorbital lachrymal gland, Harderian gland, pancreas, salivary gland, skeletal muscle, myocardium, cardiac blood, bone marrow, lymph node, spleen, and thymus. As well, LSC was used to determine the total radioactivity in the whole blood and plasma.
The whole-body cryosectioning technique described by ([Ullberg, 1977]) was the basis for embedding and cryosectioning the rats assigned to this study. Each frozen carcass was shaved, and then the limbs and tail were removed prior to embedding. Chilled (4°C) 3% CMC (low viscosity) was utilized to provide a firm support of reinforced ice around each rat and for a secure attachment to the microtome stage. Upon thorough freezing of the embedding medium surrounding each rat, the frozen CMC block was removed from the freezing bath and four 3/8 inch holes were drilled into the block. One cryosection quality control standard (CQCS) was prepared with a known amount of radioactivity and at least 1 ml aliquots were added to each of the four drilled holes. CQCS data were utilized to evaluate the overall performance of the QWBA assay.
Each frozen rat was sagittally trimmed (50–100 μm) at −20°C until exposure of a few target tissues employing a Leica Cryomacrocut heavy-duty microtome (Leica Microsystems Inc.,). Disposable stainless steel Feather type H45L knives (Feather Safety Razor Co., Ltd.) were utilized for trimming and sectioning each frozen rat. Several thinner sections (50 μm) were discarded prior to obtaining multiple 50 μm sections at various cryosectioning levels for QWBA analysis. Upon the collection of at least 60 target tissues in multiple cryosectioning levels, the cryosections were kept in the Cryomacrocut cryochamber for a minimum of 18 h for dehydration depending upon the number of cryosections within the cryochamber. After dehydration was complete, the cryosections were transferred to ambient temperature for processing. Mounted whole-body cryosections and a set of 15 standards were sandwiched between a standard phosphor screen and an exposure cassette. All cryosections were exposed to the phosphor screen for 4-days in a cabinet protected with lead prior to scanning using a Typhoon PhosphorImager (Cytiva). MCID™ Analysis software (InterFocus Ltd.) was utilized to generate a calibration curve of the STD nominal concentrations (nCi/g) versus PhosphorImager response (counts/μm^2 minus background) by weighted (1/x) linear regression analysis ([Potchoiba et al., 1995]; [Potchoiba et al., 1998]). The linear regression curve was then utilized to determine the concentration (nCi/g) of total radioactivity in whole-body tissues and blood. Radioactivity concentrations were expressed as μg Eq/g based on the specific activity of the compound in the final dose formulations. […]

[1] = 12 h post single oral 100 mg/kg
[2] = 18 h post single oral 100 mg/kg
[3] = 24 h post single oral 100 mg/kg

CC/C=C\C/C=C\C/C=C\C/C=C\C/C=C\C/C=C\CCC(=O)O[C@H](CO[14CH2]CCCCCCCCCCCCCCC)COC(=O)CCCCC1CCSS1 (stereo partly shown) [[^14C]PPI-1011]
Radioactivity concentration, Olfactory Bulb [1]: 2.01 μg equivalents/g
Radioactivity concentration, Pancreas [1]: 52.7 μg equivalents/g
Radioactivity concentration, Parotid Gland [1]: 30.4 μg equivalents/g
Radioactivity concentration, Pineal Gland [1]: 12.1 μg equivalents/g
Radioactivity concentration, Pituitary Gland [1]: 21.2 μg equivalents/g
Radioactivity concentration, Preputial Gland [1]: 214 μg equivalents/g
Radioactivity concentration, Prostate [1]: 11.8 μg equivalents/g
Radioactivity concentration, Renal Cortex [1]: 46.6 μg equivalents/g
Radioactivity concentration, Renal Medulla [1]: 53.2 μg equivalents/g
Radioactivity concentration, Salivary Gland [1]: 31.4 μg equivalents/g
Radioactivity concentration, Seminal Vesicles [1]: 2.99 μg equivalents/g
Radioactivity concentration, Skin - Non-Pigmented [1]: 18.0 μg equivalents/g
Radioactivity concentration, Small Intestines [1]: 347 μg equivalents/g
Radioactivity concentration, Spinal Cord [1]: 2.76 μg equivalents/g
Radioactivity concentration, Spleen [1]: 111 μg equivalents/g
Radioactivity concentration, Stomach [1]: 22.9 μg equivalents/g
Radioactivity concentration, Testis [1]: 4.12 μg equivalents/g
Radioactivity concentration, Thalamus [1]: 2.31 μg equivalents/g
Radioactivity concentration, Thymus [1]: 12.2 μg equivalents/g
Radioactivity concentration, Thyroid [1]: 43.1 μg equivalents/g
Radioactivity concentration, Whole Brain [1]: 2.48 μg equivalents/g
Radioactivity concentration, Adipose - Brown [2]: 66.0 μg equivalents/g
Radioactivity concentration, Adipose - Brown (Vessel Wall) [2]: 94.2 μg equivalents/g
Radioactivity concentration, Adipose - Subcutaneous [2]: 73.9 μg equivalents/g
Radioactivity concentration, Adipose - Visceral [2]: 75.6 μg equivalents/g
Radioactivity concentration, Adrenal Gland [2]: 185 μg equivalents/g
Radioactivity concentration, Bladder Wall [2]: 14.5 μg equivalents/g
Radioactivity concentration, Blood - QWBA [2]: 9.62 μg equivalents/g
Radioactivity concentration, Bone Marrow [2]: 22.3 μg equivalents/g
Radioactivity concentration, Bone Surface [2]: 1.25 μg equivalents/g
Radioactivity concentration, Cecum [2]: 177 μg equivalents/g
Radioactivity concentration, Cerebellum [2]: 3.03 μg equivalents/g
Radioactivity concentration, Cerebrum [2]: 2.49 μg equivalents/g
Radioactivity concentration, Choroid Plexus [2]: 12.8 μg equivalents/g
Radioactivity concentration, Colliculus [2]: 2.94 μg equivalents/g
Radioactivity concentration, Diaphragm [2]: 40.4 μg equivalents/g
Radioactivity concentration, Epididymis [2]: 67.7 μg equivalents/g
Radioactivity concentration, Esophagus [2]: 15.0 μg equivalents/g
Radioactivity concentration, Exorbital Lacrimal Gland [2]: 8.74 μg equivalents/g
Radioactivity concentration, Gastric Mucosa [2]: 70.1 μg equivalents/g
Radioactivity concentration, Harderian Gland [2]: 14.7 μg equivalents/g
Radioactivity concentration, Intra-Orbital Lacrimal Gland [2]: 8.91 μg equivalents/g
Radioactivity concentration, Kidney [2]: 36.1 μg equivalents/g
Radioactivity concentration, Large Intestines [2]: 154 μg equivalents/g
Radioactivity concentration, Liver [2]: 121 μg equivalents/g
Radioactivity concentration, Lung [2]: 45.4 μg equivalents/g
Radioactivity concentration, Lymph Node [2]: 22.5 μg equivalents/g
Radioactivity concentration, Medulla Oblongata [2]: 2.23 μg equivalents/g
Radioactivity concentration, Muscle [2]: 9.63 μg equivalents/g
Radioactivity concentration, Myocardium [2]: 42.4 μg equivalents/g
Radioactivity concentration, Nasal Turbinates [2]: 6.43 μg equivalents/g
Radioactivity concentration, Ocular - Uveal Tract [2]: 5.32 μg equivalents/g
Radioactivity concentration, Ocular - Whole Eye [2]: 1.65 μg equivalents/g
Radioactivity concentration, Olfactory Bulb [2]: 1.75 μg equivalents/g
Radioactivity concentration, Pancreas [2]: 39.8 μg equivalents/g
Radioactivity concentration, Parotid Gland [2]: 35.2 μg equivalents/g
Radioactivity concentration, Pineal Gland [2]: 16.2 μg equivalents/g
Radioactivity concentration, Pituitary Gland [2]: 22.0 μg equivalents/g
Radioactivity concentration, Preputial Gland [2]: 78.0 μg equivalents/g
Radioactivity concentration, Prostate [2]: 28.0 μg equivalents/g
Radioactivity concentration, Renal Cortex [2]: 38.1 μg equivalents/g
Radioactivity concentration, Renal Medulla [2]: 23.0 μg equivalents/g
Radioactivity concentration, Salivary Gland [2]: 28.8 μg equivalents/g
Radioactivity concentration, Skin - Non-Pigmented [2]: 12.0 μg equivalents/g
Radioactivity concentration, Small Intestines [2]: 239 μg equivalents/g
Radioactivity concentration, Spinal Cord [2]: 3.20 μg equivalents/g
Radioactivity concentration, Spleen [2]: 71.3 μg equivalents/g
Radioactivity concentration, Stomach [2]: 21.6 μg equivalents/g
Radioactivity concentration, Testis [2]: 5.09 μg equivalents/g
Radioactivity concentration, Thalamus [2]: 2.20 μg equivalents/g
Radioactivity concentration, Thymus [2]: 11.8 μg equivalents/g
Radioactivity concentration, Thyroid [2]: 38.5 μg equivalents/g
Radioactivity concentration, Whole Brain [2]: 2.70 μg equivalents/g
Radioactivity concentration, Adipose - Brown [3]: 133 μg equivalents/g
Radioactivity concentration, Adipose - Brown (Vessel Wall) [3]: 110 μg equivalents/g
Radioactivity concentration, Adipose - Subcutaneous [3]: 70.1 μg equivalents/g
Radioactivity concentration, Adipose - Visceral [3]: 71.6 μg equivalents/g
Radioactivity concentration, Adrenal Gland [3]: 155 μg equivalents/g
Radioactivity concentration, Bladder Wall [3]: 7.69 μg equivalents/g
Radioactivity concentration, Blood - QWBA [3]: 5.62 μg equivalents/g
Radioactivity concentration, Bone Marrow [3]: 18.3 μg equivalents/g
Radioactivity concentration, Bone Surface [3]: 0.513 μg equivalents/g
Radioactivity concentration, Cecum [3]: 231 μg equivalents/g
Radioactivity concentration, Cerebellum [3]: 2.08 μg equivalents/g
Radioactivity concentration, Cerebrum [3]: 1.61 μg equivalents/g
